The supplement of paper PMC10307832

Legend:
Assay in all cases: relative viability (nuclei count vs DMSO), 5 days (fraction); higher = more cells survive
[1] = test system: NCI-H2228
How it was run: (§1)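 One day after seeding in 1536-well plates, lung cancer cell lines were dosed by pin tool. Dosing was either single-drug or a fixed anchor-drug dose plus five library-drug doses (not always all listed) in √10 steps. After 5 days, nuclei were stained in one fix-and-stain step and counted on 4× images, and relative viability is the nuclei count of treated wells over that of vehicle wells, given as the median of duplicate plates.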

[2] = test system: NCI-H1395
How it was run: as §1

[3] = test system: NCI-H1793
How it was run: as §1

[4] = test system: BEN
How it was run: as §1

[5] = test system: NCI-H647
How it was run: as §1

[6] = test system: NCI-H1437
How it was run: as §1

[7] = test system: LXF-289
How it was run: as §1

[8] = test system: LCLC-97TM1
How it was run: as §1

[9] = test system: NCI-H1792
How it was run: as §1

[10] = test system: RERF-LC-KJ
How it was run: as §1

[11] = test system: NCI-H322M
How it was run: as §1

[12] = test system: HCC-827
How it was run: as §1

[13] = test system: NCI-H2405
How it was run: as §1

[14] = test system: NCI-H1650
How it was run: as §1

[15] = test system: 201T
How it was run: as §1

[16] = test system: NCI-H2087
How it was run: as §1

[17] = test system: SK-LU-1
How it was run: as §1

[18] = test system: LCLC-103H
How it was run: as §1

[19] = test system: NCI-H1944
How it was run: as §1

[20] = test system: NCI-H3122
How it was run: as §1

[21] = test system: CAL-12T
How it was run: as §1

In the case of `CCN(CC)CCCCNc1ncc2cc(-c3cc(OC)cc(OC)c3)c(NC(=O)NC(C)(C)C)nc2n1` + Nc1nc2[nH]cc(CCc3ccc(C(=O)N[C@@H](CCC(=O)O)C(=O)O)cc3)c2c(=O)[nH]1 [Pemetrexed] (partner 0.2 µM), the relative viability ([1]; first compound 0.01 µM) is reported as 0.318, the relative viability ([1]; first compound 0.03162 µM) is reported as 0.344 and the relative viability ([1]; first compound 0.1 µM) is reported as 0.418. For the same compound, the relative viability ([1]; first compound 0.3162 µM) was 0.326, the relative viability ([1]; first compound 1 µM) was 0.335 and the relative viability ([2]; first compound 0.01 µM) was 0.898. For the same compound, the relative viability ([2]; first compound 0.03162 µM) was 0.787, the relative viability ([2]; first compound 0.1 µM) was 0.955 and the relative viability ([2]; first compound 0.3162 µM) was 1.06. The relative viability ([2]; first compound 1 µM) was 0.607, the relative viability ([3]; first compound 0.01 µM) was 0.88 and the relative viability ([3]; first compound 0.03162 µM) was 0.815. The relative viability ([3]; first compound 0.1 µM) was 0.988, the relative viability ([3]; first compound 0.3162 µM) was 0.949 and the relative viability ([3]; first compound 1 µM) was 0.548. For the same compound, the relative viability ([4]; first compound 0.01 µM) was 0.664, the relative viability ([4]; first compound 0.03162 µM) was 0.681 and the relative viability ([4]; first compound 0.1 µM) was 0.826. It also gave a relative viability ([4]; first compound 0.3162 µM) of 0.77, a relative viability ([4]; first compound 1 µM) of 0.69 and a relative viability ([5]; first compound 0.01 µM) of 0.188. It also gave a relative viability ([5]; first compound 0.03162 µM) of 0.127, a relative viability ([5]; first compound 0.1 µM) of 0.157 and a relative viability ([5]; first compound 0.3162 µM) of 0.161. It also gave a relative viability ([5]; first compound 1 µM) of 0.136, a relative viability ([6]; first compound 0.01 µM) of 0.332 and a relative viability ([6]; first compound 0.03162 µM) of 0.309. It also gave a relative viability ([6]; first compound 0.1 µM) of 0.324, a relative viability ([6]; first compound 0.3162 µM) of 0.328 and a relative viability ([6]; first compound 1 µM) of 0.381. The relative viability ([7]; first compound 0.01 µM) was 0.923, the relative viability ([7]; first compound 0.03162 µM) was 1.02 and the relative viability ([7]; first compound 0.1 µM) was 0.907. The relative viability ([7]; first compound 0.3162 µM) was 0.884, the relative viability ([7]; first compound 1 µM) was 0.849 and the relative viability ([8]; first compound 0.01 µM) was 0.174. For the same compound, the relative viability ([8]; first compound 0.03162 µM) was 0.185, the relative viability ([8]; first compound 0.1 µM) was 0.174 and the relative viability ([8]; first compound 0.3162 µM) was 0.159. For the same compound, the relative viability ([8]; first compound 1 µM) was 0.189, the relative viability ([9]; first compound 0.01 µM) was 1.17 and the relative viability ([9]; first compound 0.03162 µM) was 0.932. For the same compound, the relative viability ([9]; first compound 0.1 µM) was 0.634, the relative viability ([9]; first compound 0.3162 µM) was 0.945 and the relative viability ([9]; first compound 1 µM) was 0.296. It also gave a relative viability ([10]; first compound 0.01 µM) of 0.497, a relative viability ([10]; first compound 0.03162 µM) of 0.487 and a relative viability ([10]; first compound 0.1 µM) of 0.499. It also gave a relative viability ([10]; first compound 0.3162 µM) of 0.428, a relative viability ([10]; first compound 1 µM) of 0.514 and a relative viability ([11]; first compound 0.01 µM) of 0.612. For the same compound, the relative viability ([11]; first compound 0.03162 µM) was 0.591, the relative viability ([11]; first compound 0.1 µM) was 0.735 and the relative viability ([11]; first compound 0.3162 µM) was 0.642. The relative viability ([11]; first compound 1 µM) was 0.567, the relative viability ([12]; first compound 0.01 µM) was 0.266 and the relative viability ([12]; first compound 0.03162 µM) was 0.261. It also gave a relative viability ([12]; first compound 0.1 µM) of 0.265, a relative viability ([12]; first compound 0.3162 µM) of 0.269 and a relative viability ([12]; first compound 1 µM) of 0.244. It also gave a relative viability ([13]; first compound 0.01 µM) of 0.994, a relative viability ([13]; first compound 0.03162 µM) of 1.06 and a relative viability ([13]; first compound 0.1 µM) of 1.14. The relative viability ([13]; first compound 0.3162 µM) was 1.3, the relative viability ([13]; first compound 1 µM) was 1.04 and the relative viability ([14]; first compound 0.01 µM) was 0.398. For the same compound, the relative viability ([14]; first compound 0.03162 µM) was 0.377, the relative viability ([14]; first compound 0.1 µM) was 0.352 and the relative viability ([14]; first compound 0.3162 µM) was 0.326. It also gave a relative viability ([14]; first compound 1 µM) of 0.344, a relative viability ([15]; first compound 0.01 µM) of 0.351 and a relative viability ([15]; first compound 0.03162 µM) of 0.315. The relative viability ([15]; first compound 0.1 µM) was 0.331, the relative viability ([15]; first compound 0.3162 µM) was 0.349 and the relative viability ([15]; first compound 1 µM) was 0.313. The relative viability ([16]; first compound 0.01 µM) was 0.716, the relative viability ([16]; first compound 0.03162 µM) was 0.637 and the relative viability ([16]; first compound 0.1 µM) was 0.746. It also gave a relative viability ([16]; first compound 0.3162 µM) of 0.645, a relative viability ([16]; first compound 1 µM) of 0.727 and a relative viability ([17]; first compound 0.01 µM) of 0.971. It also gave a relative viability ([17]; first compound 0.03162 µM) of 0.93, a relative viability ([17]; first compound 0.1 µM) of 1.1 and a relative viability ([17]; first compound 0.3162 µM) of 1.18. The relative viability ([17]; first compound 1 µM) was 0.854, the relative viability ([18]; first compound 0.01 µM) was 0.444 and the relative viability ([18]; first compound 0.03162 µM) was 0.488. The relative viability ([18]; first compound 0.1 µM) was 0.485, the relative viability ([18]; first compound 0.3162 µM) was 0.457 and the relative viability ([18]; first compound 1 µM) was 0.533. It also gave a relative viability ([19]; first compound 0.01 µM) of 0.603, a relative viability ([19]; first compound 0.03162 µM) of 0.804 and a relative viability ([19]; first compound 0.1 µM) of 0.705. The relative viability ([19]; first compound 0.3162 µM) was 0.631, the relative viability ([19]; first compound 1 µM) was 0.605 and the relative viability ([20]; first compound 0.01 µM) was 0.208. It also gave a relative viability ([20]; first compound 0.03162 µM) of 0.186, a relative viability ([20]; first compound 0.1 µM) of 0.208 and a relative viability ([20]; first compound 0.3162 µM) of 0.203. The relative viability ([20]; first compound 1 µM) was 0.223, the relative viability ([21]; first compound 0.01 µM) was 1.4 and the relative viability ([21]; first compound 0.03162 µM) was 1.2. For the same compound, the relative viability ([21]; first compound 0.1 µM) was 1.53, the relative viability ([21]; first compound 0.3162 µM) was 1.44 and the relative viability ([21]; first compound 1 µM) was 1.1.
